Measurements: patent US7964598B2 (The J. David Gladstone Institutes, priority 1995, dated 2011)
“And” between values parts separate entries of the source, which are not always exact repeats. Equal entries are not always repeated.

How the values were obtained:
HepG2 cells = experiment: Cell association of 125I-apoE-enriched β-VLDL by HepG2 cells; type: cell-based, human
wild-type CHO cells = experiment: Pulse chase of 125I-apoE+β-VLDL, wild-type CHO cells; type: cell-based, Chinese hamster; details: for Total: recovery in the fractions; for bound to the cells at 4° C. (zero time): wild-type CHO cells
Description: Cultured cells were grown to ˜100% confluence, placed on ice, and washed twice with cold DMEM-Hepes. The cells were then incubated with ^125I-apoE+β-VLDL at 4° C. for 1 h to allow for cell-surface binding (zero time bound ligand). Cells were rinsed three times with cold F12 medium to remove unbound ligands. Prewarmed F12 medium was added; and the cells were incubated at 37° C. for the times indicated. At each point, the cells were again placed on ice, and the culture medium was collected. To 0.5 ml of medium was added 0.4 ml of 0.2% bovine serum albumin (Sigma) and 0.4 ml of 50% trichloroacetic acid (TCA). The medium was then incubated at 4° C. for 30 min and centrifuged at 3,000 rpm for 10 min. The supernatant was collected for ^125I-apoE degradation assay, and the pellet was counted as TCA-precipitable intact ^125I-apoE. The cells were washed once with cold DMEM-Hepes, incubated with 10 mM suramin on ice in a cold room for 30 min, and then dissolved in 0.1 N NaOH. Cellular radioactivity (internalized apoE) was measured with a gamma counter, and protein concentration was determined by Lowry's method.
To evaluate these possibilities, we conducted a modified A pulse-chase@ study in which CHO cells were incubated with ^125I-apoE-enriched β-VLDL for 1 h at 4° C., washed to remove unbound lipoproteins, and then warmed to 37° C. for various times to follow internalization, degradation, and retention (see Materials and Methods). At the specific times, the medium was removed for analysis of both degradation products (degraded apoE) and TCA-precipitable proteins (released intact apoE), and the cells were washed with suramin (suramin-releasable apoE) and then counted (internalized apoE).

B103-APP cells = experiment: APP processing and Aβ production, B103-APP cells; type: cell-based, rat; details: lipid-free apoE, 7.5 μg/ml, 24 h, compared to medium alone
Description: Aβ production assay. Stable neuroblastoma B103 cell lines transfected with a wildtype hAPP cDNA construct (B 103-APP) were selected by growing them in Dulbecco's modified Eagle's medium (DMEM) containing 10% fetal calf serum (FBS) and 400 μg/ml G418. A cell line expressing APP at similar levels in mouse brains has been identified by RNase protection assay (RPA) and was used in the studies described below. To determine Aβ production, B103-APP cells were incubated with serum-free minimal essential medium (MEM) containing N2 supplements with or without apoE isoforms for 24 h at 37° C. After incubation, 50 μl of medium was collected and assayed for Aβ levels with an ELISA method. The cells were lysed, and cellular proteins were determined by the Lowry method. AP production was normalized to cellular protein.
Cell Culture. Rat neuroblastoma B103 cells stably expressing human wildtype APP (hAPP695wt) (Xu et al. ((1999) Proc. Natl. Acad. Sci. USA 96:7547-7552; Esposito, et al. (2004) J. Neurochem. 91:1260-1274) were generated in Dr. Lennart Mucke's laboratory at the Gladstone Institute of Neurological Disease and maintained in Dulbecco's modified Eagle's medium (DMEM) (GIBCO, Grand Island, N.Y.) containing 400 μg/ml G418, 10% fetal bovine serum, and 5% horse serum at 37° C. Twenty-four hours after plating into 48-well plates (1×10^5 cells per well), cells were washed twice with serum-free DMEM and cultured for another 24 h in DMEM containing 1% N-2 supplement (GIBCO) to induce differentiation. The cells were treated with either β-VLDL (25 μg/ml cholesterol), recombinant human apoE isoform-enriched β-VLDL (7.5 μg/ml apoE and 25 μg/ml cholesterol), or recombinant human apoE (7.5 μg/ml apoE) in fresh DMEM containing 1% N-2 supplement for an additional 24 h. In some experiments, RAP (25 nM or 1 μM) was added to the cells 1 h before apoE treatment.
In some experiments, cells were treated with lovastatin, as described but with a minor modification. Fassbender et al. (2001) Proc. Natl. Acad. Sci. USA 98:5856-5861. Briefly, cells were maintained in differentiation medium containing 4 μM lovastatin and 0.25 mM mevalonate for 24 h. After treatment for 5 min with 5 mM methyl-β-cyclodextrin, which depletes cell membrane cholesterol (Bodovitz and Klein (1996) J. Biol. Chem. 271:4436-4440; Kojro et al. (2001) Proc. Natl. Acad. Sci. USA 98:5815-5820), the cells were incubated in fresh differentiation medium containing lovastatin and mevalonate for 24 h. The conditioned medium was collected, and cellular cholesterol extracted with chloroform/methanol (Huang et al. (1994) Proc. Natl. Acad. Sci. USA 91:1834-1838) and quantitated with a kit from Abbott Laboratories (Abbott Park, Ill.).
Detection of sAPPα. Media conditioned for 24 hours were normalized by protein content and subjected to SDS/PAGE. Proteins were then transferred onto nitrocellulose membranes. The sAPPα was detected by mAb 6E10 and visualized with an enhanced chemiluminescence system (Pierce, Rockford, Ill.).
Aβ Assay. Aβ secreted into the medium was detected with a sandwich enzyme-linked immunosorbent assay (ELISA), using mAb 266 as a capturing antibody and 3D6 as a detecting antibody, as described. Johnson-Wood et al. ((1997) Proc. Natl. Acad. Sci. USA 94:1550-1555). Aβ was quantified from a standard curve (Aβ42; Bachem, Torrance, Calif.) and normalized by total cellular protein.

Row | Substance | cell association (HepG2 cells; 4 hours) | cell association (HepG2 cells; 8 hours) | Total (wild-type CHO cells; 30 min) | Degraded (wild-type CHO cells; 30 min at 37° C.) | Internalized (retained) (wild-type CHO cells; 30 min at 37° C.) | Suramin-releasable (cell surface) (wild-type CHO cells; 30 min at 37° C.) | TCA-precipitable (released intact) (wild-type CHO cells; 30 min at 37° C.) | Total (wild-type CHO cells; 60 min) | Degraded (wild-type CHO cells; 60 min at 37° C.) | Internalized (retained) (wild-type CHO cells; 60 min at 37° C.) | Suramin-releasable (cell surface) (wild-type CHO cells; 60 min at 37° C.) | TCA-precipitable (released intact) (wild-type CHO cells; 60 min at 37° C.) | Total (wild-type CHO cells; 120 min) | Degraded (wild-type CHO cells; 120 min at 37° C.) | Internalized (retained) (wild-type CHO cells; 120 min at 37° C.) | Suramin-releasable (cell surface) (wild-type CHO cells; 120 min at 37° C.) | TCA-precipitable (released intact) (wild-type CHO cells; 120 min at 37° C.) | bound to the cells at 4° C. (zero time) (wild-type CHO cells) | increase of Aβ production (B103-APP cells)
1 | apoE3: human apolipoprotein E3 isoform, also iodinated | 1062 ± 171 ng/mg cell protein | 1466 ± 38 ng/mg cell protein | 399 ng/mg cell protein | 15 ng/mg cell protein | 157 ng/mg cell protein | 45 ng/mg cell protein | 182 ng/mg cell protein | 377 ng/mg cell protein | 34 ng/mg cell protein | 123 ng/mg cell protein | 39 ng/mg cell protein | 181 ng/mg cell protein | 367 ng/mg cell protein | 45 ng/mg cell protein | 78 ng/mg cell protein | 12 ng/mg cell protein | 232 ng/mg cell protein | 399 ng/mg of cell protein | 30%
2 | apoE4: human apolipoprotein E4 isoform, also iodinated | 51 ± 10 ng/mg cell protein | 683 ± 6 ng/mg cell protein | 368 ng/mg cell protein | 12 ng/mg cell protein | 84 ng/mg cell protein | 27 ng/mg cell protein | 245 ng/mg cell protein | 338 ng/mg cell protein | 35 ng/mg cell protein | 55 ng/mg cell protein | 10 ng/mg cell protein | 238 ng/mg cell protein | 305 ng/mg cell protein | 43 ng/mg cell protein | 27 ng/mg cell protein | 10 ng/mg cell protein | 225 ng/mg cell protein | 378 ng/mg of cell protein | ~70% and ~60%
